According to patent US7608242B2, “Peptide-chelate conjugates” (GE Healthcare Limited, priority 2001, dated 2009):
Ends that are not written are not given here. Peptide text beside a SMILES is read from it. * marks the point of attachment. X1 = CCOC(C)SCC(=O)NC(CCCC(=O)*)C(=O)NCC(=O)NCC(=O)O

Experiments:
[1] = biological target: T1, ST receptor (rat intestinal membrane) (Rattus norvegicus, UniProt P23897); experiment: Radioactive binding assay of HPLC purified radiolabelled compounds; conditions: ca. 0.05 nM radiolabelled compound, 6 μg rat intestinal membrane, one hour
T1 construct: in 96 well plates containing ca. 1 μg rat intestinal membrane; from tissue; host or cells: rat intestinal membrane
T1 sequence (P23897 23-1072): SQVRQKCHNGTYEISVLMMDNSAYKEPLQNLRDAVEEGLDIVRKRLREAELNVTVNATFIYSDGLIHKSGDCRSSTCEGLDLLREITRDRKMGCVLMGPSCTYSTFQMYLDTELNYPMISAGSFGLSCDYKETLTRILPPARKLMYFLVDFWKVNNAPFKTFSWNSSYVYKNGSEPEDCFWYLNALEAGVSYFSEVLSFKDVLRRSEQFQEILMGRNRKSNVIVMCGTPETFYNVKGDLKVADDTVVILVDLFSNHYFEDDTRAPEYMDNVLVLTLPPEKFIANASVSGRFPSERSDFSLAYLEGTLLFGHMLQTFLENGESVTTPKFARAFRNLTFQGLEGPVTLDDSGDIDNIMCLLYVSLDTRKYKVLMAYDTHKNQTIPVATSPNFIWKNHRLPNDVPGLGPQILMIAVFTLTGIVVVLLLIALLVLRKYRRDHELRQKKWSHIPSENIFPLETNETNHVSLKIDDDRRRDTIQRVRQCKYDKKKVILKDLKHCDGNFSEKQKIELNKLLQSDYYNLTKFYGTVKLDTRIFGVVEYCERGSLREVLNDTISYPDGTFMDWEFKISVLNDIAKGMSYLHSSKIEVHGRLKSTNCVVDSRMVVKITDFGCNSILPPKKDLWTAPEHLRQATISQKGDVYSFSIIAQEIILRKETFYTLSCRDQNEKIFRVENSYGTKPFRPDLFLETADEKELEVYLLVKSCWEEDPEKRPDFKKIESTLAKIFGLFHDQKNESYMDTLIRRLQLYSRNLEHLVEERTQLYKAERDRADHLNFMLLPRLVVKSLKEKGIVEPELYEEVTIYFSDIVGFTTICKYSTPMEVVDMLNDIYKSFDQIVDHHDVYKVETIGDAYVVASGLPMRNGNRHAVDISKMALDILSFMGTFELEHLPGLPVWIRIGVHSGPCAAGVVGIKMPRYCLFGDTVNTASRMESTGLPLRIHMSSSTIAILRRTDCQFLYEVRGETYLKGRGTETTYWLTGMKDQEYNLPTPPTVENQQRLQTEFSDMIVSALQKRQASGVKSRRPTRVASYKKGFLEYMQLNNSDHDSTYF
Description: To determine whether radiolabelling affected the binding of the compound, labelled compounds were tested for their ability to bind the receptor. Briefly HPLC purified radiolabelled compounds (ca. 0.05 nM) were incubated with 6 μg/150 μl final volume of rat intestinal membrane (one hour), in the presence and absence of competing peptide (50 μM ST5-18). Samples were filtered (GF/B filters, Whatman) to retrieve bound radiolabelled peptide and counted to determine % Bound/Free. Non-specific binding accounted for less than 1% in all cases.
In order to ensure that potency was maintained post-labelling, an assay measuring binding of labelled compounds was developed.

[2] = tested on: sub-cutaneous T84 tumours (T84 human colon carcinoma cells); experiment: Biodistribution in a subcutaneous tumour model; format: in vivo, mouse; conditions: 60 min p.i.
Description: The sub-cutaneous model was used as an appropriate initial in vivo screen. Briefly, mice (female nude CD-1, ca. 20 g; Charles River) were injected sub-cutaneously into the neck with T84 human colon carcinoma cells (0.1 ml, 1×10^8 cells/ml in medium) through a 23-gauge needle and allowed to develop tumours over 6-8 weeks.
At least three animals per test point were studied. Results are expressed as % injected dose per gram (% ID/g) of tissue.
Compounds were screened for their uptake into sub-cutaneous T84 tumours in the mouse (Table IV). This model allows assessment of the imageability of CA1-ST5-18 by allowing comparison between tumour and background tissue uptake.

[3] = tested on: T84 tumours subcutaneously; experiment: Imaging in the subcutaneous tumour model (planar gamma camera); format: in vivo, mouse; conditions: HPLC purified, 20 MBq per animal
Description: Tumour to liver ratios were; 1.1 at 15 minutes, 2 at 60 minutes and 4 at 120 minutes.
Tumours were grown as in Example 17. Animals were monitored for tumour growth for 8 to 10 weeks, until tumours were 0.5-1 cm in size. After this time, animals were injected with test article (0.1 ml, 20 MBq/ml or 200 MBq/ml) as an intravenous bolus via the tail vein. At various times p.i. animals were euthanased and whole body planar images acquired between 5 minutes and 24 hours p.i. using a gamma camera (Park Medical Isocam-1). Image acquisition times were typically 15-30 min or 150-250K counts (whole body, LEUHR collimator).

T84 liver tumours = experiment: Imaging in liver metastases model; format: in vivo, rat; conditions: image of Example 21 (FIG. 8)
Description: The image is a whole body image with background counts removed and kidneys masked. Image tumour:liver ratio was typically 2.5.
The liver metastases model was used in both mice and rats. As for the subcutaneous tumour model except in establishing tumours, cells were injected via the spleen and allowed to transfer to the liver via the circulation. Two minutes after injection of cells, a splenectomy was performed. Animals were allowed to generate tumours over 6-8 weeks.
Tumours were grown in animal as described in Example 20. Animals were monitored for tumour growth for 8 to 10 weeks, until tumours were 0.5-1 cm in size. After this time, animals were injected with test article (0.1 ml, 200 MBq/ml) as an intravenous bolus via the tail vein. At various times p.i. animals were euthanased and whole body planar images acquired between 5 minutes and 24 hours p.i. using a gamma camera (Park Medical Isocam-1). Image acquisition times were typically 15-30 min or 150-250K counts (whole body, LEUHR collimator). […] The image has the kidneys masked to improve the resolution of the imaged metastases.

[4] = tested on: sub-cutaneous T84 tumours; experiment: Uptake of labelled conjugate and negative control into CRC tumours; format: in vivo, mouse; conditions: CD-1 nude mice bearing s.c. T84 tumours
[5] = biological target: T1, ST receptor (rat intestinal membrane); experiment: Competition binding assay against [125I]ST1-17
Description: Compounds were assessed for their potency by radioligand binding assay to determine inhibition constant (Ki) as a measure of potency of binding. Methods are described elsewhere, but briefly, [^125I]ST1-17 was competed with cold ST compounds (0.0001-50 μM) in 96 well plates containing ca. 1 μg rat intestinal membrane and incubated 1 hr, 37° C. Samples were filtered (GF/B filters, Whatman) to retrieve bound radiolabelled peptide and counted to determine % Bound/Free.
Potency of compounds was determined by inhibition constant (Ki) for their ability to compete with radioligand, [^125I]ST1-17.

[6] = Mean Ki value (nM), competition with [125I]ST1-17, ca. 1 μg rat intestinal membrane, 1 hr, 37° C., means of triplicate wells

99mTc-labelled CA1-ST5-18: CA1-ST5-18 peptide-chelate conjugate radiolabelled with 99mTc (CCELCCNPACAGCY; disulfide (positions not given here); not fully specified (N-terminus); ends not checked; also: 99mTc label chelated by CA1, three disulfides, pairing not given here)
binding, % of added radioactive material [1]: 6% | excreted / cleared via urine [2]: greater than 90% | Tumour to liver ratio (image) ([3]; 15 minutes): 1.1 | Tumour to liver ratio (image) ([3]; 60 minutes): 2 | Tumour to liver ratio (image) ([3]; 120 minutes): 4 | tumour:liver ratio based on ROI analysis (T84 liver tumours): 1.5-3.0 | uptake into tumour (FIG. 5) [4]: good uptake

C/C(=N/O)C(C)(C)NCCN(CCNC(=O)CCC(=O)N[C@H]1CSSC[C@@H]2NC(=O)[C@@H]3CSSC[C@@H](C(=O)N[C@@H](Cc4ccc(O)cc4)C(=O)O)NC(=O)CNC(=O)[C@H](C)NC(=O)[C@H](CSSC[C@H](NC1=O)C(=O)N[C@@H](CCC(=O)O)C(=O)N[C@@H](CC(C)C)C(=O)N3)NC(=O)[C@H](C)NC(=O)[C@@H]1CCCN1C(=O)[C@H](CC(N)=O)NC2=O)CCNC(C)(C)/C(C)=N\O [CA1-ST5-18]
Ki [5, 6]: 2.8 nM | Ki ([5]; Mean Ki value (nM), mock-labelled (subjected to the radiolabelling protocol in the absence of radiometal)): 3.5 nM

C/C(=N/O)C(C)(C)NCCN(CCNC(=O)CCC(=O)NCC(=O)NCC(=O)NCC(=O)NC(CCC(=O)O)C(=O)NC(CCC(=O)O)C(=O)NC(CCC(=O)O)C(=O)N[C@H]1CSSC[C@@H]2NC(=O)[C@@H]3CSSC[C@@H](C(=O)N[C@@H](Cc4ccc(O)cc4)C(=O)O)NC(=O)CNC(=O)[C@H](C)NC(=O)[C@H](CSSC[C@H](NC1=O)C(=O)N[C@@H](CCC(=O)O)C(=O)N[C@@H](CC(C)C)C(=O)N3)NC(=O)[C@H](C)NC(=O)[C@@H]1CCCN1C(=O)[C@H](CC(N)=O)NC2=O)CCNC(C)(C)/C(C)=N\O (some centres unmarked) [CA1-gly3-Dglu3-ST5-18]
Ki ([5]; Ki, competition binding): 1 nM

CCOC(C)SCC(=O)NC(CCCC(=O)N[C@@H](C)C(=O)N[C@@H](C)C(=O)N[C@@H](CCC(=O)O)C(=O)N[C@@H](CC(C)C)C(=O)N[C@@H](C)C(=O)N[C@@H](C)C(=O)N[C@@H](CC(N)=O)C(=O)N1CCC[C@H]1C(=O)N[C@@H](C)C(=O)N[C@@H](C)C(=O)N[C@@H](C)C(=O)NCC(=O)N[C@@H](C)C(=O)N[C@@H](Cc1ccc(O)cc1)C(=O)O)C(=O)NCC(=O)NCC(=O)O (some centres unmarked) [CA3-ST5-18(cys-ala), reference compound] (X1-AAELAANPAAAGAY-OH)
Ki value (nM) ([5]; Table IV screening data): none | Ki ([5]; competition binding): no binding | Mean Ki value (nM) ([5]; competition with [125I]ST1-17, ca. 1 μg rat intestinal membrane, 1 hr, 37° C., means of triplicate wells): none

CCOC(C)SCC(=O)NC(CCCC(=O)N[C@H]1CSSC[C@@H]2NC(=O)[C@@H]3CSSC[C@@H](C(=O)N[C@@H](Cc4ccc(O)cc4)C(=O)O)NC(=O)CNC(=O)[C@H](C)NC(=O)[C@H](CSSC[C@H](NC1=O)C(=O)N[C@@H](CCC(=O)O)C(=O)N[C@@H](CC(C)C)C(=O)N3)NC(=O)[C@H](C)NC(=O)[C@@H]1CCCN1C(=O)[C@H](CC(N)=O)NC2=O)C(=O)NCC(=O)NCC(=O)O (some centres unmarked) [CA3-ST5-18]
Ki ([5]; Ki value (nM), Table IV screening data): 0.8 nM | Ki ([5]; Ki, competition binding): 0.8 nM | Ki [5, 6]: 0.8 nM

CC(C)C[C@@H]1NC(=O)[C@H](CCC(=O)O)NC(=O)[C@@H]2CSSC[C@@H]3NC(=O)[C@H](C)NC(=O)[C@@H]4CCCN4C(=O)[C@H](CC(N)=O)NC(=O)[C@H](CSSC[C@H](N)C(=O)N2)NC(=O)[C@H](CSSC[C@@H](C(=O)N[C@@H](Cc2ccc(O)cc2)C(=O)O)NC(=O)CNC(=O)[C@H](C)NC3=O)NC1=O [ST5-18]
Ki ([5]; Ki, competition binding): 0.4 nM
